The source of these data is the Kinase Knowledgebase extract (Sharma et al. 2016).

In the first assay the target is EGFR (UniProt P00533).
Sequence of EGFR (P00533 whole entry, looked up): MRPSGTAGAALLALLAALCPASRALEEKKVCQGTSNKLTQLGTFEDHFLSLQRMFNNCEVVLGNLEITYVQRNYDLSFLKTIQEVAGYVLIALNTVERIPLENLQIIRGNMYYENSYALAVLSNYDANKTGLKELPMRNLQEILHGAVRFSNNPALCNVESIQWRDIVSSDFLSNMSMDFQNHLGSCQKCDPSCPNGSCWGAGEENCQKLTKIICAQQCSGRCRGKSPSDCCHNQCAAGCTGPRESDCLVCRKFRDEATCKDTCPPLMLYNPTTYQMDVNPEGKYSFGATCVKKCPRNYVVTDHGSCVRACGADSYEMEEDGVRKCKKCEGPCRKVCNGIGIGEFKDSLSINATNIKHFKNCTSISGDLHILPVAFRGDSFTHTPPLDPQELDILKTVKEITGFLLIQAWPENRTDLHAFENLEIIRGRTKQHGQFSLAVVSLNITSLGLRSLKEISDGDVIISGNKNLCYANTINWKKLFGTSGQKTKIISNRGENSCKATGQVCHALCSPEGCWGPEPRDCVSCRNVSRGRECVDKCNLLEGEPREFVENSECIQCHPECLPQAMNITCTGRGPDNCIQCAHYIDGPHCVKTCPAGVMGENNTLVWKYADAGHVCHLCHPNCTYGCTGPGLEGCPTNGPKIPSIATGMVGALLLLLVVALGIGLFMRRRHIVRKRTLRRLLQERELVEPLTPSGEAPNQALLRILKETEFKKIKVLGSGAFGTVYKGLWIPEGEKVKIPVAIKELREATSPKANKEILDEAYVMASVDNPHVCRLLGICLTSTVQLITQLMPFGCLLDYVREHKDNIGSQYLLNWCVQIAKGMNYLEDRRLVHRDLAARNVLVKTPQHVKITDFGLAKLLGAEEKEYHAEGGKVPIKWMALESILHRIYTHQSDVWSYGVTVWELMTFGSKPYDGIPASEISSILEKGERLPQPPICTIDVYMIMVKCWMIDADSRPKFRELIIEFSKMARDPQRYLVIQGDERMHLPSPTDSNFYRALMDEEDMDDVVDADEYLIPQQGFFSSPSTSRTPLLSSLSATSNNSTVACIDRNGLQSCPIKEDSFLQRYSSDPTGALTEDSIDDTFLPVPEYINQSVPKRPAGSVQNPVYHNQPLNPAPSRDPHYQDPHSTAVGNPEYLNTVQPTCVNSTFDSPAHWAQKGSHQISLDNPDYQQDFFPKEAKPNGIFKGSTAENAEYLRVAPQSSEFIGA
Settings: not given
Broadly, the IC50 is the concentration needed to halve the response being measured. Lower therefore signals greater potency in that assay. `O=c1ccc2ccc(O)c(O)c2o1` showed an IC50 of 7.67 µM. That is a single-digit micromolar value.

The assay is the same for the next values; noted with them: concentration not given here.
One may read the inhibition as the percentage by which the read-out fell short of the control. Low readings indicate little suppression, high ones strong suppression. In turn, `O=c1ccc2ccc(O)c(O)c2o1` returned an inhibition of 99.6%.

In the case of `O=c1ccc2cc(O)c(O)cc2o1`, the inhibition amounted to 0%. Still for that read-out and setting: to `O=c1ccc2ccc(O)cc2o1` belongs 0%; to `O=c1cc(O)c2ccccc2o1`, 0%. On the same count and under the same terms, to `OC1C=Cc2ccccc2O1` (configuration not stated) belongs 0%; to `O=c1ccc2ccccc2o1`, 0%.
